The values below come from US4209439A, “Stabilization of vinyl resins” (priority 1977, dated 1980).

What all share (assay type): physicochemical
A short description of data set [1]: migration of stabiliser from PVC bottles into water at 50° C. The note with it: water 50° C. The procedure:
2.2--Study of the migration
The migration or the extractability of the stabiliser from the PVC compound under the effect of various liquids (and particularly water) stored in a plastic container is of essential importance for the use of these stabilisers in the field of food packagings.
(§1) The technique as regards extraction was the following: using the formula which is given below, a batch of bottles (volume 1 liter, diameter 70 mm, height.perspectiveto.230 mm) was prepared, the said bottles being filled with a liquid simulating the foods. […] The migration of the stabiliser was judged by dosage of the pyridine present in the extractum, using the dosage method which is later described. This pyridine obviously represents the oxidised form of the extracted 1,4-dihydropyridine.
The investigation was particularly developed for water at 50° C. over a period of 2 months, because it represents the important problem regarding the packaging of mineral waters.
Formula for the manufacture of bottles
The S L 2016 is a solution of zinc 2-ethyl hexanoate in a mixture of aromatic hydrocarbons boiling from 158° to 184° C.
(§2) The stabilisers are measured out in the form of their oxidation product (pyridine).
(§3) The oxidation is made quantitative by adding a few drops of iodine to the solution. The latter is then extracted with chloroform and the chloroform is evaporated to a small residual volume. The solution obtained is then subjected to thin-film chromatography, by comparison with solutions of known concentration of the desired pyridines.
(§4) The sensitivity threshold of this technique is 5 μg/liter.

Data set [2] in a line: migration of stabiliser from PVC into solutions or solvents simulating foods at 50° C. The procedure:
as §1, §2, §3, §4
For justifying the possibility of using the dihydropyridines (I) having a radical R comprising from 9 to 22 carbon atoms in applications concerned with food packaging, other than those applications relating to mineral waters, the extractability of the dihydropyridines by several solutions or solvents having the following composition, by weight, was investigated:
(a) water-sodium chloride: 97-3
(b) water-saccharose: 90-10
(c) water-sodium chloride-acetic acid: 98.5-0.5-1
(d) water-citric acid (solution at pH=5): 98-2
(e) water-acetic acid: 97-3
(f) water-acetic acid: 90-10
(h) water-acetic acid: 50-50

A short description of data set [3]: polarographic study of the oxidation potential (Example 30). The note with it: acetonitrile, lithium perchlorate; calomel electrode; in V (unit assumed). From the text: 261. Polarographic study of the oxidation potential […]
reference electrode: a calomel electrode which contains, as junction liquid, a saturated solution of anhydrous lithium perchlorate working electrode: rotating electrode of vitreous carbon (2500 r.p.m.) counter-electrode: platinum. acetonitrile, having a water content smaller than 0.1% and not presenting any polarographic waves between -2.5 volts and +2.5 volts.
0.1 M solution of lithium perchlorate in acetonitrile, treated and preserved on a molecular screen of 4 A. […]
exploration amplitude: 0 to 2 V exploration speed: 10 mV/sec.

Data set [4] in a line: sublimation at 160° C. for 6 hours under nitrogen. The settings on record: for % of sublimed product: 160° C., 6 hours, nitrogen; for sublimation: of the quantity of product being used. The procedure: A test sample of about 130 mg of the product to be investigated is introduced into a 100 cc beaker. The latter is placed in a 250 cc reactor. The temperature is kept at 160° C. by means of a thermostatically controlled oil bath for 6 hours, the atmosphere of the reactor being inert (nitrogen) in order to avoid the oxidation of the 1,4-dihydropyridine into pyridine, which is more sublimable.
For each dihydropyridine derivative which is investigated, the result is expressed as a percentage of sublimed product relatively to the quantity being used.

Data set [5] is described as follows: polarographic oxidation potential (Example 31). The settings on record: 0.5 m.mole/liter; methanol/acetic acid; 35° C. The procedure:
platinum counter-electrode and calomel electrode with filling by a saturated aqueous solution of lithium chloride.
The measurements were carried out in the following solvent:
90 parts of an 0.1 M solution of lithium perchlorate in methanol, 10 parts of a 0.1 M solution of perchloric acid in acetic acid. square voltage superimposed with constant pulses of +10 millivolts, initial potential: 500 millivolts, scanning voltage: 1000 millivolts in the anode direction, oxidation at the vitreous carbon electrode (speed of rotation: 2000 r.p.m.)

Structures are written as SMILES. Where “and” joins values, the source holds several entries; their conditions need not be identical. Identical values can stand only once.

For the molecule `CCOC(=O)C1=C(C)NC(C)=C(C(=O)OCC)C1` [L.28501, 2,6-Dimethyl-3,5-dicarboethoxy-1,4-dihydropyridine], the Migration in data set [1] (0.15 pct, 1 month) is 100 µg/L; in data set [1] (0.15 pct, 2 months), 100 µg/L; in data set [1] (0.15 pct, 10 days), 20 µg/L; in data set [1] (0.15 pct, 20 days), 50 µg/L; in data set [1] (0.30 pct, 1 month) it was 150 µg/L; in data set [1] (0.30 pct, 2 months), 150 µg/L. Further, the Migration was 90 µg/L in data set [1] (0.30 pct, 10 days); 120 µg/L in data set [1] (0.30 pct, 20 days); 120 µg/L in data set [2] (H2O/NaCl (97:3), 0.3, 1 month); 150 µg/L in data set [2] (H2O/NaCl (97:3), 0.3, 2 months). Also, the Oxidation potential in data set [3] is on record as 0.73 ± 0.01. Further, the “% of sublimed product” value in data set [4] was 82.9%.

`CCCCCCCCCCCCCCOC(=O)C1=C(C)NC(C)=C(C(=O)OCCCCCCCCCCCCCC)C1` [L.28590, 2,6-Dimethyl-3,5-dicarbotetradecyloxy-1,4-dihydropyridine]: the Migration is less than 5 µg/L in data set [1] (0.15 pct, 1 month); less than 5 µg/L in data set [1] (0.15 pct, 2 months); less than 5 µg/L in data set [1] (0.15 pct, 10 days); less than 5 µg/L in data set [1] (0.15 pct, 20 days); less than 5 µg/L in data set [1] (0.30 pct, 1 month); less than 5 µg/L in data set [1] (0.30 pct, 2 months). Also, the Migration in data set [1] (0.30 pct, 10 days) is less than 5 µg/L; in data set [1] (0.30 pct, 20 days) it was less than 5 µg/L; in data set [2] (H2O/NaCl (97:3), 0.3, 1 month) it was less than 5 µg/L; in data set [2] (H2O/NaCl (97:3), 0.3, 2 months) it was less than 5 µg/L. Also, in data set [4], the “% of sublimed product” value turned out to be 0.1%. Further, the Oxidation potential in data set [5] was 732 millivolts.

In the case of `Cc1cc(C(C)(C)C)c(O)c(C(C)(C)C)c1` [BHT, Di-tert.-2,6-butyl-4-methyl phenol, reference compound], the Oxidation potential came to 1.11 ± 0.02 in data set [3] and 1163 millivolts in data set [5].

Take `CCCCCCCCOC(=O)C1=C(C)NC(C)=C(C(=O)OCCCCCCCC)C1` [L.28502]: in data set [4], the “% of sublimed product” value is listed as 7.2% and the sublimation is 7%.

On to `CCCCCCCCCCCCOC(=O)C1=C(C)NC(C)=C(C(=O)OCCCCCCCCCCCC)C1` [L.28507, 2,6-Dimethyl-3,5-dicarbododecyloxy-1,4-dihydropyridine], for which the Migration in data set [1] (0.15 pct, 1 month) is less than 5 µg/L; in data set [1] (0.15 pct, 2 months) it was less than 5 µg/L; in data set [1] (0.15 pct, 10 days), less than 5 µg/L; in data set [1] (0.15 pct, 20 days) it was less than 5 µg/L; in data set [1] (0.30 pct, 1 month), less than 5 µg/L; in data set [1] (0.30 pct, 2 months), less than 5 µg/L. Besides, the Migration in data set [1] (0.30 pct, 10 days) was less than 5 µg/L; in data set [1] (0.30 pct, 20 days) it was less than 5 µg/L; in data set [2] (H2O/NaCl (97:3), 0.3, 1 month) it was less than 5 µg/L; in data set [2] (H2O/NaCl (97:3), 0.3, 2 months), less than 5 µg/L; in data set [2] (Heptane, 0.3 pcr, after 36 h), 120 µg/L; in data set [2] (Heptane, 0.3 pcr, after 84 h) it was 150 µg/L. The Migration in data set [2] (Water/C2H5OH (50:50), 0.3, 1 month) was 50 µg/L; in data set [2] (Water/C2H5OH (85:15), 0.3, 1 month), less than 5 µg/L; in data set [2] (Water/C2H5OH (85:15), 0.3, 2 months), less than 5 µg/L; in data set [2] (Water/CH3COOH (50:50), 0.3, 1 month), 25 µg/L; in data set [2] (Water/CH3COOH (90:10), 0.3, 1 month), less than 5 µg/L; in data set [2] (Water/CH3COOH (90:10), 0.3, 2 months), less than 5 µg/L. Besides, the Migration in data set [2] (Water/CH3COOH (97:3), 0.3, 1 month) is less than 5 µg/L; in data set [2] (Water/CH3COOH (97:3), 0.3, 2 months), less than 5 µg/L; in data set [2] (Water/NaCl/CH3COOH (98,5:0,5:1), 0.3, 1 month), less than 5 µg/L; in data set [2] (Water/NaCl/CH3COOH (98,5:0,5:1), 0.3, 2 months) it was less than 5 µg/L; in data set [2] (Water/Sacchrose (90:10), 0.3, 1 month) it was less than 5 µg/L; in data set [2] (Water/Sacchrose (90:10), 0.3, 2 months), less than 5 µg/L. For the same molecule, the Migration was less than 5 µg/L in data set [2] (Water/citric acid (98:2), pH 5, 0.3, 1 month) and less than 5 µg/L in data set [2] (Water/citric acid (98:2), pH 5, 0.3, 2 months). Moreover, in data set [4], the “% of sublimed product” value is recorded as 1.7%. In data set [5], this molecule displayed an Oxidation potential of 783 millivolts.

Consider `CCCCCCCCCCCCCCCCCCOC(=O)C1=C(C)NC(C)=C(C(=O)OCCCCCCCCCCCCCCCCCC)C1` [L.28599, 2,6-Dimethyl-3,5-dicarbooctadecyloxy-1,4-dihydropyridine], for which the Migration was less than 5 µg/L in data set [1] (0.15 pct, 1 month); less than 5 µg/L in data set [1] (0.15 pct, 2 months); less than 5 µg/L in data set [1] (0.15 pct, 10 days); less than 5 µg/L in data set [1] (0.15 pct, 20 days); less than 5 µg/L in data set [1] (0.30 pct, 1 month); less than 5 µg/L in data set [1] (0.30 pct, 2 months). In addition, the Migration in data set [1] (0.30 pct, 10 days) is less than 5 µg/L; in data set [1] (0.30 pct, 20 days), less than 5 µg/L; in data set [2] (H2O/NaCl (97:3), 0.3, 1 month), less than 5 µg/L; in data set [2] (H2O/NaCl (97:3), 0.3, 2 months), less than 5 µg/L. Also, in data set [4], the “% of sublimed product” value is 1.2%.

Regarding `CCCCCCCCCCCCCCCCCCCCCCOC(=O)C1=C(C)NC(C)=C(C(=O)OCCCCCCCCCCCCCCCCCCCCCC)C1` [L.28601], in data set [4], the “% of sublimed product” value amounted to 0.4%.

`CCCOC(=O)C1=C(C)NC(C)=C(C(=O)OCCC)C1` [L.28509]: in data set [4], the “% of sublimed product” value was determined as 79.1%.

For the molecule `CCCCCCCCCCOC(=O)C1=C(C)NC(C)=C(C(=O)OCCCCCCCCCC)C1` [L.28591], the “% of sublimed product” value in data set [4] is listed as 1.7%.

For `CCCCOC(=O)C1=C(C)NC(C)=C(C(=O)OCCCC)C1` [L.28552, 2,6-Dimethyl-3,5-dicarbobutoxy-1,4-dihydropyridine], the Migration in data set [1] (0.15 pct, 1 month) worked out at 90 µg/L; in data set [1] (0.15 pct, 2 months), 100 µg/L; in data set [1] (0.15 pct, 10 days) it was 15 µg/L; in data set [1] (0.15 pct, 20 days) it was 40 µg/L; in data set [1] (0.30 pct, 1 month) it was 130 µg/L; in data set [1] (0.30 pct, 2 months) it was 130 µg/L. The Migration was 80 µg/L in data set [1] (0.30 pct, 10 days); 120 µg/L in data set [1] (0.30 pct, 20 days); 80 µg/L in data set [2] (H2O/NaCl (97:3), 0.3, 1 month); 100 µg/L in data set [2] (H2O/NaCl (97:3), 0.3, 2 months). For the same molecule, the “% of sublimed product” value in data set [4] stood at 39.2%.

As to `COc1ccc(O)cc1` [4-Methoxy phenol], the Oxidation potential in data set [3] stood at 0.89 ± 0.01.

As to `c1ccc(-c2cc3ccccc3[nH]2)cc1` [2-phenyl indole, reference compound], the Migration in data set [1] (0.30 pct, 1 month, listed as Control) is 100 µg/L and 110 µg/L and 120 µg/L; in data set [1] (0.30 pct, 2 months, listed as Control) it was 100 µg/L and 110 µg/L and 130 µg/L; in data set [1] (0.30 pct, 10 days, listed as Control), 75 µg/L and 70 µg/L and 80 µg/L; in data set [1] (0.30 pct, 20 days, listed as Control), 90 µg/L and 100 µg/L; in data set [2] (H2O/NaCl (97:3), 0.3, 1 month), 90 µg/L; in data set [2] (H2O/NaCl (97:3), 0.3, 2 months), 140 µg/L. Moreover, the “% of sublimed product” value in data set [4] came out at 62%. The molecule further registered a sublimation in data set [4] of 62%.

In data set [5], `CCCCCCCC/C=C\CCCCCCCCOC(=O)C1=C(C)NC(C)=C(C(=O)OCCCCCCCC/C=C\CCCCCCCC)C1` [L.28602] yielded an Oxidation potential of 808 millivolts.

Molecule `Oc1ccc(O)cc1` [Hydroquinone] gave an Oxidation potential in data set [3] of 0.83 ± 0.01.

As for `CC1=C(C(=O)OC(C)C)CC(C(=O)OC(C)C)=C(C)N1` [L.28506], the “% of sublimed product” value in data set [4] came to 98.1%.
